From paper PMC1664607 (PLoS Medicine, 2006)
In brackets after ≈: the same amount, converted by molar mass.

How the values were obtained:
E. coli WP2 uvr A = assay: Bacterial reverse mutation (BRM) test; assay type: cell-based
Method: (§1) The BRM test was performed in accordance with OECD Guideline 471 using Salmonella tyiphimurium TA98, TA100, TA1535, and TA1537, and Escherichia coli WP2 uvrA [11]. Each bacterial strain was pre-cultured at 37 °C for 18 h using a nutrient broth (Nissui Pharmaceutical; http://www.nissui-pharm.co.jp/index_e.html). After adjustment to 2.4 at OD660 nm, each bacterial suspension was added to a test tube containing the designated compound in the absence or presence of rat liver microsome (S9) mix. After a 20-min incubation at 37 °C, top agar was added to each test tube and the contents were poured into minimum essential medium (Oriental Yeast; http://www.oyc.co.jp/e/index.htm). The number of revertants was counted 48 h after incubation at 37 °C.

S. typhimurium TA1535 = assay: Bacterial reverse mutation (BRM) test; assay type: cell-based
Method: as §1

S. typhimurium TA1537 = assay: Bacterial reverse mutation (BRM) test; assay type: cell-based
Method: as §1

S. typhimurium TA98 = assay: Bacterial reverse mutation (BRM) test; assay type: cell-based
Method: as §1

[1] = test system: Salmonella tyiphimurium TA98, TA100, TA1535, and TA1537, and Escherichia coli WP2 uvrA; assay: Bacterial reverse mutation (BRM) test, overall result; assay type: cell-based; conditions: absence and presence of S9 mix, OECD Guideline 471
Method: as §1

[2] = test system: M. tuberculosis ATCC 25618 (H37Rv); assay: Susceptibility testing (agar dilution MIC); assay type: cell-based; conditions: Mycobacterium tuberculosis, 336 h; 7H11 agar, 37 °C, 14 d; read-out: MIC
[3] = test system: M. tuberculosis ATCC 35837 (H37Rv-E-R); assay: microbe, parasite or virus in culture; assay type: cell-based; conditions: Mycobacterium tuberculosis, 336 h
[4] = test system: clinically isolated M. tuberculosis (27 test strains); assay: Checkerboard method, combination with existing TB drugs; assay type: cell-based; conditions: antagonism = FIC index >4.0
Excerpt: In addition, the efficacy of OPC-67683 in combination with currently used anti-TB drugs RFP, INH, EB, and SM was examined in vitro using the checkerboard method.

M. tuberculosis Kurono = assay: Therapeutic efficacy in an experimental mouse model of chronic TB; assay type: in vivo, ICR mice; conditions: for Log of Viable Counts/Lung: mean ± S.D., n = 5
[5] = assay type: in vitro ADME, human, rat, mouse, dog, rabbit, and monkey; conditions: 2 h
Method: The study was undertaken to investigate the metabolites produced by the metabolic reactions of OPC-67683 using human, rat, mouse, dog, rabbit, and monkey liver microsomes. Pooled human liver microsomes (20 mg/ml) from ten donors were prepared at the Biomedical Research Institute, Human and Animal Bridge Discussion Group (Chiba, Japan). Human liver samples were legally procured from the National Disease Research Interchange (http://www.ndriresource.org/) through the international partnership with the Human and Animal Bridge Discussion Group. The study was conducted in accordance with the Declaration of Helsinki.
The reactions were performed in duplicate in a shaking water bath at 37 °C for 2 h. The incubation mixtures were extracted with acetonitrile and ethyl acetate, and the samples were analyzed by HPLC and LC-ESI-MS/MS.

CYP2A6 = biological target: T1, CYP2A6 (Homo sapiens, UniProt P11509); assay: Coumarin 7-hydroxylation in human liver microsomes; assay type: in vitro ADME; conditions: 2 μM coumarin
T1 construct: Standard incubation mixtures of 0.5 ml contained microsomal protein (0.1–0.5 mg); from tissue; host or cells: pooled human liver microsomes (ten donors)
T1 sequence (P11509 1-494): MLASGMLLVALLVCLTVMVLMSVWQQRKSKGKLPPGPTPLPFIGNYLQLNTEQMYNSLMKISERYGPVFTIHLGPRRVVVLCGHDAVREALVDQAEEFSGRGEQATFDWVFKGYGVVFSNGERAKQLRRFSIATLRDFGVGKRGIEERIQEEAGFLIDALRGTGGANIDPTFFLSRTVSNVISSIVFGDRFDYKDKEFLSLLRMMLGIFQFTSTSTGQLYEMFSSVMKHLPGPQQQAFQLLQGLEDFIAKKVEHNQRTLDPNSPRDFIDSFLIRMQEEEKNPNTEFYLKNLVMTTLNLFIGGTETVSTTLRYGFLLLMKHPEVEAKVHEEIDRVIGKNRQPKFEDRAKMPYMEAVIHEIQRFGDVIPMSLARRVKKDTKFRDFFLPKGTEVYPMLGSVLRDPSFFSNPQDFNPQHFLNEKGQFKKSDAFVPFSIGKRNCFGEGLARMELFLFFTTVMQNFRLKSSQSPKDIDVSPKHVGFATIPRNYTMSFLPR

CYP2D6 = biological target: T2, CYP2D6 (Homo sapiens, UniProt P10635); assay: Bufuralol 1′ -hydroxylation in human liver microsomes; assay type: in vitro ADME; conditions: 20 μM bufuralol
T2 construct: Standard incubation mixtures of 0.5 ml contained microsomal protein (0.1–0.5 mg); from tissue; host or cells: pooled human liver microsomes (ten donors)
T2 sequence (P10635 whole entry): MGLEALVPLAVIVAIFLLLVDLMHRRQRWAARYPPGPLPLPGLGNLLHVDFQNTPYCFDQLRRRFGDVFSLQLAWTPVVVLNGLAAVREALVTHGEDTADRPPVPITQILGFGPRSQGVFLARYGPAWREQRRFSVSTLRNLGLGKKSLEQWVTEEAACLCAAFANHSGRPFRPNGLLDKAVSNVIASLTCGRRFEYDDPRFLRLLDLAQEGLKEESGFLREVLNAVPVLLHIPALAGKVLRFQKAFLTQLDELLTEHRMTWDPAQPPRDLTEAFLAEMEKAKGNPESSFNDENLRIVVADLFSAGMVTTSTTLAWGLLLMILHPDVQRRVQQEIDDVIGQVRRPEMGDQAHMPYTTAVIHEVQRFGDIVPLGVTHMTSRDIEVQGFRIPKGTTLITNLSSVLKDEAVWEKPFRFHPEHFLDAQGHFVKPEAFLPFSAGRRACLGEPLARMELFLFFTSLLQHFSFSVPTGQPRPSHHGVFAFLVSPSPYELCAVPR

[6] = Plasma levels in an experimental mouse model of TB; conditions: in vivo, po

Work on C[C@]1(COc2ccc(N3CCC(Oc4ccc(OC(F)(F)F)cc4)CC3)cc2)Cn2cc([N+](=O)[O-])nc2O1 [OPC-67683, (R)-2-methyl-6-nitro-2-(4-[4-(4-trifluoromethoxyphenoxy)piperidin-1-yl]phenoxymethyl}-2,3-dihydroimidazo[2,1-b]oxazole] yielded a Revertants/Plate (E. coli WP2 uvr A; S9 mix +, 312.5 μg/plate) of 23 Revertants/Plate, a Revertants/Plate (E. coli WP2 uvr A; S9 mix +, 625 μg/plate) of 20 Revertants/Plate and a Revertants/Plate (E. coli WP2 uvr A; S9 mix +, 1,250 μg/plate) of 25 Revertants/Plate. The Revertants/Plate (E. coli WP2 uvr A; S9 mix +, 2,500 μg/plate) was 23 Revertants/Plate, the Revertants/Plate (E. coli WP2 uvr A; S9 mix +, 5,000 μg/plate) was 29 Revertants/Plate and the Revertants/Plate (E. coli WP2 uvr A; S9 mix −, 312.5 μg/plate) was 23 Revertants/Plate. The Revertants/Plate (E. coli WP2 uvr A; S9 mix −, 625 μg/plate) was 25 Revertants/Plate, the Revertants/Plate (E. coli WP2 uvr A; S9 mix −, 1,250 μg/plate) was 20 Revertants/Plate and the Revertants/Plate (E. coli WP2 uvr A; S9 mix −, 2,500 μg/plate) was 24 Revertants/Plate. The Revertants/Plate (E. coli WP2 uvr A; S9 mix −, 5,000 μg/plate) was 24 Revertants/Plate, the Revertants/Plate (S. typhimurium TA1535; S9 mix +, 625 μg/plate) was 6 Revertants/Plate and the Revertants/Plate (S. typhimurium TA1535; S9 mix +, 2,500 μg/plate) was 8 Revertants/Plate. It also gave a Revertants/Plate (S. typhimurium TA1535; S9 mix +, 5,000 μg/plate) of 9 Revertants/Plate, a Revertants/Plate (S. typhimurium TA1535; S9 mix −, 312.5 μg/plate) of 6 Revertants/Plate and a Revertants/Plate (S. typhimurium TA1535; S9 mix −, 625 μg/plate) of 9 Revertants/Plate. The Revertants/Plate (S. typhimurium TA1535; S9 mix −, 2,500 μg/plate) was 7 Revertants/Plate, the Revertants/Plate (S. typhimurium TA1535; S9 mix −, 5,000 μg/plate) was 6 Revertants/Plate and the Revertants/Plate (S. typhimurium TA1537; S9 mix +, 312.5 μg/plate) was 73 Revertants/Plate. For the same molecule, the Revertants/Plate (S. typhimurium TA1537; S9 mix +, 625 μg/plate) was 72 Revertants/Plate, the Revertants/Plate (S. typhimurium TA1537; S9 mix +, 1,250 μg/plate) was 66 Revertants/Plate and the Revertants/Plate (S. typhimurium TA1537; S9 mix +, 2,500 μg/plate) was 63 Revertants/Plate. It also gave a Revertants/Plate (S. typhimurium TA1537; S9 mix +, 5,000 μg/plate) of 74 Revertants/Plate, a Revertants/Plate (S. typhimurium TA1537; S9 mix −, 312.5 μg/plate) of 60 Revertants/Plate and a Revertants/Plate (S. typhimurium TA1537; S9 mix −, 625 μg/plate) of 62 Revertants/Plate. The Revertants/Plate (S. typhimurium TA1537; S9 mix −, 1,250 μg/plate) was 54 Revertants/Plate, the Revertants/Plate (S. typhimurium TA1537; S9 mix −, 2,500 μg/plate) was 61 Revertants/Plate and the Revertants/Plate (S. typhimurium TA1537; S9 mix −, 5,000 μg/plate) was 63 Revertants/Plate. The Revertants/Plate (S. typhimurium TA98; S9 mix +, 312.5 μg/plate) was 31 Revertants/Plate, the Revertants/Plate (S. typhimurium TA98; S9 mix +, 625 μg/plate) was 31 Revertants/Plate and the Revertants/Plate (S. typhimurium TA98; S9 mix +, 1,250 μg/plate) was 30 Revertants/Plate. The Revertants/Plate (S. typhimurium TA98; S9 mix +, 2,500 μg/plate) was 31 Revertants/Plate, the Revertants/Plate (S. typhimurium TA98; S9 mix +, 5,000 μg/plate) was 35 Revertants/Plate and the Revertants/Plate (S. typhimurium TA98; S9 mix −, 312.5 μg/plate) was 29 Revertants/Plate. For the same molecule, the Revertants/Plate (S. typhimurium TA98; S9 mix −, 625 μg/plate) was 29 Revertants/Plate, the Revertants/Plate (S. typhimurium TA98; S9 mix −, 1,250 μg/plate) was 34 Revertants/Plate and the Revertants/Plate (S. typhimurium TA98; S9 mix −, 2,500 μg/plate) was 37 Revertants/Plate. The Revertants/Plate (S. typhimurium TA98; S9 mix −, 5,000 μg/plate) was 31 Revertants/Plate, the “Mutagenic potential in the BRM test” value [1] was “did not show mutagenicity” and the MIC [2] was 0.012 µg/mL (≈ 0.0225 µM). The MIC [3] was 0.012 µg/mL (≈ 0.0225 µM), the “Antagonistic activity in combination with RFP, INH, EB, and SM” value [4] was “no antagonistic activity” and the “Log of Viable Counts/Lung” value (M. tuberculosis Kurono; 0.156 mg/kg once daily for 28 d (4 weeks)) was 6.506 ± 0.294^a:NS, b:NS. For the same molecule, the “Log of Viable Counts/Lung” value (M. tuberculosis Kurono; 0.313 mg/kg once daily for 28 d (4 weeks)) was 5.959 ± 0.436^a:**, b:**, the “Log of Viable Counts/Lung” value (M. tuberculosis Kurono; 0.625 mg/kg once daily for 28 d (4 weeks)) was 5.457 ± 0.245^a:**, b:** and the “Log of Viable Counts/Lung” value (M. tuberculosis Kurono; 1.25 mg/kg once daily for 28 d (4 weeks)) was 4.867 ± 0.400^a:**, b:**. For the same molecule, the “Log of Viable Counts/Lung” value (M. tuberculosis Kurono; 2.5 mg/kg once daily for 28 d (4 weeks)) was 4.753 ± 0.297^a:**, b:**, the “Log of Viable Counts/Lung” value (M. tuberculosis Kurono; 5 mg/kg once daily for 28 d (4 weeks)) was 4.272 ± 0.463^a:**, b:** and the “Log of Viable Counts/Lung” value (M. tuberculosis Kurono; 10 mg/kg once daily for 28 d (4 weeks)) was 3.943 ± 0.465^a:**, b:**. The “Log of Viable Counts/Lung” value (M. tuberculosis Kurono; 20 mg/kg once daily for 28 d (4 weeks)) was 3.495 ± 0.522^a:**, b:**, the “Log of Viable Counts/Lung” value (M. tuberculosis Kurono; 40 mg/kg once daily for 28 d (4 weeks)) was 2.791 ± 0.671^a:**, b:** and the “Dose that could produce a CFU reduction of at least 95%” value (M. tuberculosis Kurono; lung, once daily for 28 d) was 0.625 mg/kg. The “Stability in the in vitro metabolism of liver microsomes” value [5] was “stable”, the “Percent of Control” value (CYP2A6; 10 μM) was 103.1% of Control and the “Percent of Control” value (CYP2A6; 30 μM) was 97.8% of Control. For the same molecule, the “Percent of Control” value (CYP2D6; 10 μM) was 99.1% of Control, the “Percent of Control” value (CYP2D6; 30 μM) was 103.3% of Control and the “Percent of Control” value (CYP2D6; 100 μM) was 97.8% of Control. The concentration at 1 h [6] was 133 ± 30 ng/mL, the concentration at 2 h [6] was 193 ± 40 ng/mL and the concentration at 4 h [6] was 220 ± 20 ng/mL. The concentration at 6 h [6] was 297 ± 83 ng/mL, the AUC(0-t) ([6]; 2.5 mg/kg) was 4130 ng·h/mL and the Cmax ([6]; 2.5 mg/kg) was 297 ng/mL. The Tmax ([6]; 2.5 mg/kg) was 6 h, the concentration at 12 h ([6]; 2.5 mg/kg) was 166 ± 49 ng/mL and the concentration at 24 h ([6]; 2.5 mg/kg) was 49 ± 12 ng/mL. It also gave a half-life ([6]; 2.5 mg/kg) of 7.6 h.
